In patent US10517877B2, “Compounds and methods for modulating frataxin expression” (Wisconsin Alumni Research Foundation, priority 2016, dated 2019):

What was measured:
[1] = test system: FXN protein in GM15851 cells; test: Immunoblot for FXN protein in GM15851 cells; format: cell-based, human; conditions: 24 hours, 1 μM, Agent 4 0.1, 0.5 or 1 μM
Procedure: (§1) In FIG. 3A, “50” refers to GM15850 cells and in FIG. 3B, “51” refers to GM15851 cells. Cells were treated as in Example 4.
(§2) Total cell extracts from cell lines were used for immunoblot analysis. Antibodies to frataxin (abcam ab110328, 1:250 dilution) or alpha-Tubulin (Cell Signaling Technologies 2144, 1:1000 dilution) were used. Signal was detected by chemiluminescence with HRP-conjugated secondary antibodies (Bio-Rad 172-1011, 1:2000 for anti-mouse frataxin and GE NA934V, 1:2000 for anti-rabbit alpha-Tubulin).

[2] = test system: frataxin (FXN) mRNA in GM15850 cells; test: FXN mRNA by RT-PCR in GM15850 FRDA patient cell line; format: cell-based, human; conditions: 1 μM, 24 hours, normalized to TBP, relative to 0.1% DMSO
Description: GM15850 and GM15851 cell lines (Epstein Barr virus transformed human B-lymphocytes) were obtained from the National Institute of General Medical Sciences (NIGMS) Human Genetic Cell Repository at the Coriell Institute for Medical Research, Camden, N.J. The GM15850 cell line was derived from a clinically affected Friedreich's ataxia patient ataxia displaying scoliosis, hypertrophic cardiomyopathy, and slurred speech, and characterized as homozygous for the GAA expansion in the frataxin gene with alleles of approximately 650 and 1030 repeats. The GM15851 cell line was derived from a clinically unaffected individual having two FRDA alleles in the normal range of GAA trinucleotide repeats (from about 6 to about 34 repeats). This clinically unaffected individual is a sibling of the clinically affected patient from which the GM15850 cell line was derived.
Cells were maintained in RPMI 1640 supplemented with 2 mM L-glutamine and 15% fetal bovine serum (FBS) at 37° C. in a humidified atmosphere of 5% CO2. Cell density was maintained between 200,000 cells/mL and 1,000,000 cells/mL. Cell growth and morphology were monitored by phase contrast microscopy and cell viability by trypan blue exclusion. To maintain cell density, cells were passaged by centrifuging at 500g for 3 minutes and resuspending the cells in fresh media. […]

cell cycle = conditions: cited from earlier work
[3] = test system: FXN protein in GM15850 cells; test: Immunoblot for FXN protein in GM15850 cells; format: cell-based, human; conditions: 24 hours, 1 μM, Agent 4 0.1, 0.5 or 1 μM
Procedure: as §1, §2

[4] = test system: MYC transcription in MM cells; conditions: MM cells bearing IgH rearrangement at the MYC locus; cited from earlier work
[5] = test system: FXN-GAA-Luc reporter cell line; test: Luciferase reporter assay, FXN-GAA-Luc line (~310 GAA repeats); format: cell-based; conditions: 24 hours, Agent 4 at 1 or 2 μM, other treatments 2 μM
Procedure: Treatments are 2 μM unless otherwise indicated. Results are mean±SEM (n=4).

SMILES	FXN protein (immunoblot) [1]	increase in FXN mRNA levels [2]	cell cycle effect (cell cycle)	FXN protein (immunoblot) [3]	MYC transcription [4]	luciferase activity [5]
Cc1sc2c(c1C)C(c1ccc(Cl)cc1)=N[C@@H](CC(=O)NCCOCCOCCOCCOCCOCCOCCC(=O)NCCCN(C)CCCNC(=O)CCNC(=O)c1cc(NC(=O)c3cc(NC(=O)c4nc(NC(=O)c5cc(NC(=O)CCCNC(=O)c6nc(NC(=O)c7cc(NC(=O)c8cc(NC(=O)c9sccc9Cl)cn8C)cn7C)cn6C)cn5C)cn4C)cn3C)cn1C)c1nnc(C)n1-2 [Control Conjugate 2]	increase in FXN protein	no increase	–	–	–	–
Cc1sc2c(c1C)C(c1ccc(Cl)cc1)=N[C@@H](CC(=O)OC(C)(C)C)c1nnc(C)n1-2 [JQ1]	–	no increase	known to cause cell cycle arrest	Neither polyamide alone (3), nor JQ1, nor the unconjugated treatment induced increased production of FXN protein	inhibits MYC transcription in a dose- and time-dependent manner	Significant activation was not observed
